Data from patent US20210196711A1, “LYSINE-SPECIFIC HISTONE DEMETHYLASE AS A NOVEL THERAPEUTIC TARGET IN MYELOPROLIFERATIVE NEOPLASMS” (Imago Biosciences, Inc., priority 2015, published 2021).
Counter-ions that a name gives are not always drawn.

Legend:
[1] = system: JAK2^V617F knock-in mouse model of myeloproliferative neoplasm (MPN); assay: JAK2V617F knock-in mouse model of myeloproliferative neoplasm; assay type: in vivo; details: JAK2^V617F mice, 25 mg/kg/day, 56 days, compared to vehicle
Procedure: Compound [IMG 7289; need number or name inserted] was evaluated in the JAK2^V617F knock-in mouse model of myeloproliferative neoplasm (MPN). The procedure of Hasan et al. Blood, 2013, 122, 1464-1477, was followed. (See also Mullally et al. Cancer Cell 2010, 17, 584-596.) Animals bearing the JAK2^V617F were treated with Compound 2 tosylate (25 mg/kg/day) or vehicle for a total of 56 days. Blood samples were taken at the indicated time points and analyzed for hematocrit, white blood cell count (WBC) and platelets as described in Hasan et al. Non-drug-treated animals expressing the JAK2^V617F mutation manifested elevated levels of platelets, WBCs, and hematocrit as compared to wild-type animals.

[2] = primary myelofibrosis patients, 50 to 100 mg/day in combination with prednisone; cited from earlier work

| Compound | hematocrit [1] | platelet levels [1] | white blood cell count [1] | patients with improved anemia and thrombocytopenia [2] | patients with reduced spleen size [2] |
| --- | --- | --- | --- | --- | --- |
| CN1CCN(C(=O)[C@H](CCCN[C@@H]2C[C@H]2c2ccc(F)cc2)NC(=O)c2ccc(-n3ccnn3)cc2)CC1 [Compound 2 tosylate] | reduction | reduction | reduction |  |  |
| O=C1CCC(N2C(=O)c3ccccc3C2=O)C(=O)N1 (centres unmarked) [Thalidomide] |  |  |  | approximately 60% | approximately 20% |
